Experimental data taken from patent US20160031905A1, “Macrocyclic LRRK2 Kinase Inhibitors” (IPSEN PHARMA S.A.S., priority 2013, published 2016).
Structures can show the parent of a compound that is named as a salt.

Key:
[1] = molecular target: T1, LRRK2 recombinant protein (Homo sapiens, UniProt Q5S007); experiment: Radiometric protein kinase assay (33PanQinase Activity Assay), in vitro peptide-based kinase assay; format: biochemical; conditions: protein kinase LRRK2 7.3 nM, ATP 0.3 μM, substrate GSK3(14-27), 30° C. for 60 minutes
T1 construct: purchased Invitrogen Corporation
Experimental: The inhibition of LRRK2 kinase was assessed using LRRK2 recombinant protein in an in vitro peptide-based kinase assay.
A radiometric protein kinase assay (^33PanQinase® Activity Assay) is used for measuring the kinase activity. All assays are performed in 96-well FlashPlates™ from Perkin Elmer in a 50 μl reaction volume. The reaction cocktail is […] in 4 steps in the following order: • 10 μl of non-radioactive ATP solution (in H2O) • 25 μl of assay buffer/[γ-^33P]-ATP mixture • 5 μl of test sample in 10% DMSO • 10 μl of enzyme/substrate mixture
The assay for LRRK2 contains 70 mM HEPES-NaOH pH 7.5, 3 mM MgCl2, 3 mM MnCl2, 3 μM Na-orthovanadate, 1.2 mM DTT, 50 μg/ml PEG20000, ATP (0.3 μM), [γ-^33P]-ATP (approx. […] per well), protein kinase LRRK2 (7.3 nM) and substrate (GSK3(14-27), 1.0 μg/50 μl). The kinase is obtained from Invitrogen Corporation.
The reaction cocktails were incubated at 30° C. for 60 minutes. The reaction was stopped with 50 μl of 2% (v/v) H3PO4, plates were aspirated and washed two times with 200 μl 0.9% (w/v) NaCl. Incorporation of ^33Pi (counting of “cpm”) was determined with a microplate scintillation counter.
The compounds are dissolved to 10 mM in DMSO. Where needed, solutions are sonicated in a bath sonicator.

T1 sequence (Q5S007 whole entry): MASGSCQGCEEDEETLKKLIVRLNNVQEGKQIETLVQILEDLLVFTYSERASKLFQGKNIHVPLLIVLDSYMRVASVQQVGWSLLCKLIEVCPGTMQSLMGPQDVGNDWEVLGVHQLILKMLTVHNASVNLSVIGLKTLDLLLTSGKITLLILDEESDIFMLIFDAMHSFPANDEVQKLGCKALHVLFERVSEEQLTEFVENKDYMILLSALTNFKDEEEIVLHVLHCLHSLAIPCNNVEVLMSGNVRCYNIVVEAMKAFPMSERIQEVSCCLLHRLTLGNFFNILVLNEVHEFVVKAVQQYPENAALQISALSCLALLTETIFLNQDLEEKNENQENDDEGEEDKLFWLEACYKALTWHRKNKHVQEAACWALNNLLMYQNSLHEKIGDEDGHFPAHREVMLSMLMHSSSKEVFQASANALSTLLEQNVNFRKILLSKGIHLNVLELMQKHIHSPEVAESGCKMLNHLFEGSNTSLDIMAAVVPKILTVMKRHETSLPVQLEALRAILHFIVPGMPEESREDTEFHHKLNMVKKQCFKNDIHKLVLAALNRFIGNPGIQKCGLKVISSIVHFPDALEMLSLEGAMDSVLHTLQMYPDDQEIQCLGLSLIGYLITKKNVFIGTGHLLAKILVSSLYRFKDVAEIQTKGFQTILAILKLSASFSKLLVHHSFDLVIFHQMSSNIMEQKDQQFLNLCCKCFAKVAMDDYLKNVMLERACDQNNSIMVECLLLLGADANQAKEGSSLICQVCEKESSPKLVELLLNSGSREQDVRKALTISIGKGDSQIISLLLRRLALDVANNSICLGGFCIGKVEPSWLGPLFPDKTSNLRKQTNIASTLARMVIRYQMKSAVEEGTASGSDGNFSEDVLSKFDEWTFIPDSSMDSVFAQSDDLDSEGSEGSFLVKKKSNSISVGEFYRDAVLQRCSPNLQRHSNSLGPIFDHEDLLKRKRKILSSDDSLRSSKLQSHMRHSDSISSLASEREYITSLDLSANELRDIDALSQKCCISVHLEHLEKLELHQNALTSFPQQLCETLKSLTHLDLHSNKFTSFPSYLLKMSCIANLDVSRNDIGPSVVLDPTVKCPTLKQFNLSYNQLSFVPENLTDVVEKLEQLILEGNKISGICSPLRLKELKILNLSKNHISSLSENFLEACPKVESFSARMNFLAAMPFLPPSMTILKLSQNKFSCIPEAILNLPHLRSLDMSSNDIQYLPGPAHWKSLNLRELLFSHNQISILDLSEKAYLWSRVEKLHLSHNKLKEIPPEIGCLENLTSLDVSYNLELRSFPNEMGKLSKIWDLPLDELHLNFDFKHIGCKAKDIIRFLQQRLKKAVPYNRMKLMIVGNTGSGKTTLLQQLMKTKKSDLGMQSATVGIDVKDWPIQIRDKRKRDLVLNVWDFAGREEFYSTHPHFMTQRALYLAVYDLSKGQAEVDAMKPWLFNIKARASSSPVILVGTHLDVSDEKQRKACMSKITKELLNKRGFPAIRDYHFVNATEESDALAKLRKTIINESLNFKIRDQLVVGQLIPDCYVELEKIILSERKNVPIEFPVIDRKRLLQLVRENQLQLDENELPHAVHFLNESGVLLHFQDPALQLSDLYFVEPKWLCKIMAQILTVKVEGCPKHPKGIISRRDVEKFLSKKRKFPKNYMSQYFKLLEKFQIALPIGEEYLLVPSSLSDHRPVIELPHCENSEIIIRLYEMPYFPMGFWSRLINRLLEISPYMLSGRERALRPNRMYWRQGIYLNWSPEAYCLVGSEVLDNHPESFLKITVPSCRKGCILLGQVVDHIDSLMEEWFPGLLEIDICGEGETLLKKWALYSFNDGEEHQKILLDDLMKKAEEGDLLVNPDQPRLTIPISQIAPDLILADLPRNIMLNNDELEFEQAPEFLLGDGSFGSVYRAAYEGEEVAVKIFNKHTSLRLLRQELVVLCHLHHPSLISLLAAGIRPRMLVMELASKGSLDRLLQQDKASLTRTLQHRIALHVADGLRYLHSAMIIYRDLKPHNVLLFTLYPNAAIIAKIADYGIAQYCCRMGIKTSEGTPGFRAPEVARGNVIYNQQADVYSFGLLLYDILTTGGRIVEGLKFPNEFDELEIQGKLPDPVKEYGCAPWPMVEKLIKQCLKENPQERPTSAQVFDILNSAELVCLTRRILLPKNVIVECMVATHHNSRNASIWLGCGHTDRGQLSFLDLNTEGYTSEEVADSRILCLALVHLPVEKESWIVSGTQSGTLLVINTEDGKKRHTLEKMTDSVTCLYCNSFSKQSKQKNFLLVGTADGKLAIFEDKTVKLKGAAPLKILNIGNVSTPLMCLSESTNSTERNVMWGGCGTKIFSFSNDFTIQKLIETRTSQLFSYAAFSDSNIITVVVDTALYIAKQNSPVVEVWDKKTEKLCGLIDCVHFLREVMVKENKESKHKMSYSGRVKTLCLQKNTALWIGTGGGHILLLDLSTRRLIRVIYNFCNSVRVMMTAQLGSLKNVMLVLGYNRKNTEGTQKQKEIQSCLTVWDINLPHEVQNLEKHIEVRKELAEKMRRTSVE

CN1CCNCCOc2cccc(c2)-c2cnn3ccc1nc23 [Compound G2]
IC50 [1]: < 100 nM | melting point: > 300 °C

c1cc2cc(c1)-c1cnn3ccc(nc13)NCCCCNCCCO2 [Compound D5]
IC50 [1]: < 100 nM | melting point: 146.9 °C

c1cc2cc(c1)-c1cnn3ccc(nc13)NCCNCCN2 [Compound D1]
IC50 [1]: < 100 nM | melting point: > 300 °C

CN1CCCNc2ccc(F)c(c2)-c2cnc3ccc(nn23)NCC1 [Compound G45]
IC50 [1]: < 100 nM | melting point: 289.1 °C

Fc1ccc2cc1-c1cnc3ccc(nn13)NCCNCCCO2 [Compound G33]
IC50 [1]: < 100 nM | melting point: > 300 °C

Fc1ccc2cc1-c1cnc3ccc(nn13)NCCCNCCO2 [Compound G15]
IC50 [1]: < 100 nM

Cc1ccc2cc1-c1cnn3ccc(nc13)NCCCNCCO2 [Compound G42]
IC50 [1]: 100 to 1000 nM | melting point: 296.8 °C

CN1CCNCCCNc2ccc(F)c(c2)-c2cnn3ccc1nc23 [Compound G39]
IC50 [1]: < 100 nM | melting point: > 300 °C

c1cc2cc(c1)-c1cnn3ccc(nc13)NCCCNCCN2 [Compound D4]
IC50 [1]: < 100 nM | melting point: 296.8 °C

CN1CCCNCCNc2ccc(F)c(c2)-c2cnn3ccc1nc23 [Compound G35]
IC50 [1]: < 100 nM | melting point: 284.8 °C

c1cc2cc(c1)-c1cnn3ccc(nc13)OCCCNCCN2 [Compound G3]
IC50 [1]: < 100 nM

CN1CCCNCCOc2cccc(c2)-c2cnn3ccc1nc23 [Compound G17]
IC50 [1]: < 100 nM | melting point: 297.5 °C

c1cc2cc(c1)-c1cnc3ccc(nn13)NCCNCCCO2 [Compound G32]
IC50 [1]: < 100 nM | melting point: > 300 °C

CN1CCCNc2ccn3ncc(c3n2)-c2cc(ccc2F)OCC1 (as salt: HCl) [Compound G18]
melting point: > 300 °C

Fc1ccc2cc1-c1cnn3ccc(nc13)NCCNCCN2 [Compound G7]
IC50 [1]: < 100 nM | melting point: > 300 °C

Fc1ccc2cc1-c1cnn3ccc(nc13)NCCCNCCO2 [Compound G6]
IC50 [1]: < 100 nM | melting point: 197.6 °C

CN1CCNCCCOc2ccc(F)c(c2)-c2cnc3ccc1nn23 [Compound G34]
IC50 [1]: < 100 nM | melting point: > 300 °C

Fc1ccc2cc1OCCNCCNc1ccn3ncc-2c3n1 [Compound C2]
IC50 [1]: < 100 nM | melting point: > 300 °C

c1cc2cc(c1)-c1cnn3ccc(nc13)NCCCNCCCN2 [Compound G1]
IC50 [1]: < 100 nM

Fc1ccc2cc1-c1cnn3ccc(nc13)NCCCCNCCO2 [Compound G40]
IC50 [1]: < 100 nM | melting point: > 300 °C

CN1CCCNCCOc2ccc(F)c(c2)-c2cnn3ccc1nc23 [Compound G16]
IC50 [1]: < 100 nM

Fc1ccc2cc1-c1cnn3ccc(nc13)NCCCNCCN2 [Compound G12]
IC50 [1]: < 100 nM | melting point: > 300 °C

N#CCN1CCCNc2ccc(F)c(c2)-c2cnn3ccc(nc23)NCC1 [Compound G47]
IC50 [1]: < 100 nM | melting point: 262.6 °C

CN1CCCOc2ccc3ncc(n3n2)-c2cc(ccc2F)NCC1 [Compound G44]
IC50 [1]: < 100 nM | melting point: 242.3 °C

c1cc2cc(c1)-c1cnn3ccc(nc13)OCCCNCCN2 (as salt: HCl) [Compound G3]
melting point: 280 °C

c1cc2cc(c1)-c1cnn3ccc(nc13)OCCNCCCN2 [Compound G8]
IC50 [1]: < 100 nM | melting point: 276.7 °C

Clc1ccc2cc1-c1cnn3ccc(nc13)NCCNCCCO2 [Compound G30]
IC50 [1]: 100 to 1000 nM | melting point: > 300 °C

CN1CCCNCCNc2ccc(F)c(c2)-c2cnc3ccc1nn23 [Compound G50]
IC50 [1]: < 100 nM

Fc1ccc2cc1-c1cnn3ccc(nc13)NCCCOCCN2 [Compound G49]
IC50 [1]: < 100 nM

Fc1ccc2cc1-c1cnn3ccc(nc13)NCCCCNCCN2 [Compound G46]
IC50 [1]: < 100 nM | melting point: 270.4 °C

CC1CNCCCNc2ccn3ncc(c3n2)-c2cc(ccc2F)O1 (stereo not drawn) [Compound G28]
IC50 [1]: < 100 nM | melting point: > 300 °C

c1cc2cc(c1)-c1cnc3ccc(nn13)NCCCNCCO2 [Compound G4]
IC50 [1]: < 100 nM | melting point: > 300 °C

CN1CCCNc2ccc(F)c(c2)-c2cnc3ccc(nn23)N(C)CC1 [Compound G48]
IC50 [1]: 100 to 1000 nM | melting point: 289.4 °C

Fc1ccc2cc1-c1cnn3ccc(nc13)OCCCNCCN2 [Compound G19]
IC50 [1]: < 100 nM | melting point: 279.1 °C

CN1CCNCCCOc2cccc(c2)-c2cnn3ccc1nc23 [Compound G22]
IC50 [1]: < 100 nM | melting point: 286.4 °C

Fc1ccc2cc1-c1cnc3ccc(nn13)OCCCNCCN2 [Compound G36]
IC50 [1]: < 100 nM | melting point: > 300 °C

c1cc2cc(c1)-c1cnn3ccc(nc13)NCCNCCCN2 [Compound D3]
IC50 [1]: < 100 nM | melting point: > 300 °C

Fc1ccc2cc1-c1cnn3ccc(nc13)NCCNCCO2 [Compound C1]
IC50 [1]: < 100 nM

Fc1ccc2cc1-c1cnn3ccc(nc13)NCCNCCO2 (as salt: hydrochloride) [Compound C1]
melting point: > 300 °C

Fc1ccc2cc1-c1cnc3ccc(nn13)NCCNCCCN2 [Compound G37]
IC50 [1]: < 100 nM | melting point: > 300 °C

CN1CCNCCCNc2ccc(F)c(c2)-c2cnc3ccc1nn23 [Compound G41]
IC50 [1]: < 100 nM | melting point: 263.8 °C

Fc1ccc2cc1-c1cnc3ccc(nn13)NCCCNCCN2 [Compound G43]
IC50 [1]: < 100 nM | melting point: > 300 °C

Clc1ccc2cc1-c1cnn3ccc(nc13)NCCCNCCO2 [Compound G27]
IC50 [1]: < 100 nM | melting point: > 300 °C

CC1COc2cccc(c2)-c2cnn3ccc(nc23)NCCN1 (stereo not drawn) [Compound G11]
IC50 [1]: < 100 nM | melting point: 245.9 °C

CN1CCCOc2ccc(F)c(c2)-c2cnn3ccc(nc23)NCC1 [Compound G25]
IC50 [1]: 100 to 1000 nM | melting point: 168.8 °C

CN1CCNCCCOc2ccc(F)c(c2)-c2cnn3ccc1nc23 [Compound G26]
IC50 [1]: < 100 nM | melting point: > 300 °C

CC1CNCCNc2ccn3ncc(c3n2)-c2cccc(c2)O1 (racemic) [Compound G5]
IC50 [1]: < 100 nM | melting point: 215 °C

c1cc2cc(c1)-c1cnn3ccc(nc13)NCCCNCCCN2 (as salt: HCl) [Compound G1]
melting point: 280 °C

CN1CCCNCCOc2ccc(F)c(c2)-c2cnc3ccc1nn23 [Compound G24]
IC50 [1]: < 100 nM | melting point: > 300 °C

CC1CNCCCNc2ccn3ncc(c3n2)-c2cccc(c2)O1 (stereo not drawn) [Compound G23]
IC50 [1]: < 100 nM | melting point: > 300 °C

CC1COc2cccc(c2)-c2cnn3ccc(nc23)NCCCN1 (stereo not drawn) [Compound G31]
IC50 [1]: < 100 nM

CN1CCCNc2ccn3ncc(c3n2)-c2cccc(c2)OCC1 [Compound G20]
IC50 [1]: < 100 nM

Fc1ccc2cc1-c1cnn3ccc(nc13)NCCNCCCN2 [Compound G21]
IC50 [1]: < 100 nM | melting point: > 300 °C

c1cc2cc(c1)-c1cnn3ccc(nc13)NCCCCNCCO2 [Compound G14]
IC50 [1]: < 100 nM | melting point: > 300 °C

CN1CCCNCCOc2ccc(F)c(c2)-c2cnn3ccc1nc23 (as salt: HCl) [Compound G16]
melting point: > 300 °C

c1cc2cc(c1)-c1cnn3ccc(nc13)NCCCNCCO2 [Compound A33]
IC50 [1]: < 100 nM | melting point: > 300 °C

CN1CCCNc2ccn3ncc(c3n2)-c2cc(ccc2F)OCC1 [Compound G18]
IC50 [1]: < 100 nM
